Measurements published in patent publication US6689767B2, “Triterpenes having antibacterial activity” (Regents of the University of Minnesota, priority 2000, dated 2004).
Converted amounts (≈) assume the structure as drawn.

How the values were obtained:
Escherichia coli = assay: Kirby-Bauer disk diffusion growth inhibition, Escherichia coli; format: cell-based; details: for zone of inhibition at 0.125 µg/mL: Escherichia coli, read-out: Zone of inhibition Escherichia coli; for zone of inhibition at 0.125 µg/mL / Zone of inhibition Escherichia coli: 100 μl on 10 mm disk, 18 hours 37° C.; for Active against: Table 1 summary, E. coli; for effectiveness against E. Coli: Tables 1a and 1b
How it was run: (§1)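 Bacteria grown 18 h at 37 °C in nutrient broth, 0.5 ml swabbed onto Mueller-Hinton agar; 10 mm disks loaded with 100 μl compound in DMSO or water (additional compounds at 10 mg/ml in DMSO). Inhibition zones measured after 18 h at 37 °C, in triplicate.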

Staphylococcus aureus = assay: Kirby-Bauer disk diffusion growth inhibition, Staphylococcus aureus; format: cell-based; details: for zone of inhibition at 0.125 µg/mL: Staphylococcus aureus, read-out: Zone of inhibition Staphylococcus aureus; for zone of inhibition at 0.125 µg/mL / Zone of inhibition Staphylococcus aureus: 100 μl on 10 mm disk, 18 hours 37° C.; for Active against: Table 1 summary, S. aureus; for effectiveness against S. aureus: Tables 1a and 1b
How it was run: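 S. aureus broth culture (18 h, 37 °C) spread on Mueller-Hinton agar; 10 mm disks carrying 100 μl compound solution in DMSO or water, one set at 10 mg/ml in DMSO. Inhibition zones measured after 18 h at 37 °C, in triplicate.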

Bacillus subtilis = assay: Kirby-Bauer disk diffusion growth inhibition, Bacillus subtilis; format: cell-based; details: 100 μl on 10 mm disk, 18 hours 37° C.; for zone of inhibition at 0.125 µg/mL: Bacillus subtilis, read-out: Zone of inhibition Bacillus subtilis
How it was run: as §1

E. Coli = assay: Minimum inhibitory concentration in tryptic soy broth, E. coli; format: cell-based, Escherichia coli; details: 24 hours 37° C., turbidity
Protocol: (§2) Sterile tryptic soy broth was prepared according to the manufacturer's instructions (Difco Lab, Michigan). To each tube containing 7 ml of broth, test compounds dissolved in DMSO were added at different concentrations in triplicate. The tubes were incubated for 24 hours at 37° C. and then turbidity was measured using a […]. The colorimeter was calibrated with sterile broth. The MIC was the lowest concentration that could prevent an increase in turbidity.

bacteria = assay: Summary statements over the antibacterial assays above; format: cell-based; details: summary list
[1] = test system: methicillin-resistant Staphylococcus aureus; assay: Growth inhibition of methicillin-resistant Staphylococcus aureus; format: cell-based
Protocol: The compounds disclosed herein were tested for growth inhibition against four strains of bacteria: Escherichia coli, Staphylococcus aureus, methicillin-resistant Staphylococcus aureus, and Bacillus subtilis. […] They represent […]. E. coli is a gram-negative, non-spore forming, rod-shaped, opportunistic pathogen that resides in the human digestive tract. S. aureus is a gram positive coccus, is usually found morphologically as a […], and is an opportunistic human pathogen, often residing on or in the skin. B. subtilis is a gram positive spore-forming rod. Its native environment is the soil. The chemicals were tested for growth-inhibition of the bacteria by the Kirby-Bauer method. See, e.g., Microbiology, third edition; Lansing M. Prescott, John P. Harley, and Donald A. Klein; Wm. C. Brown Publishers.
Mueller-Hinton agar (Difco Lab, Michigan) was prepared according to the manufacturer's directions, and 20 ml was dispensed in each sterile petri dish. Sterile nutrient broth (Difco Lab, Michigan) was also prepared according to the manufacturer's directions.
Bacteria were grown in liquid nutrient broth for 18 hours at 37° C. until they were turbid.
An aliquot of 0.5 ml of cultured bacteria was aseptically transferred to the surface of a Mueller-Hinton agar plat, and spread using a cotton-tipped swab. […]
The zones of inhibition were measured after 18 hours growth at 37° C. […]

S. aureus = assay: Minimum inhibitory concentration in tryptic soy broth, S. aureus; format: cell-based, Staphylococcus aureus; details: 24 hours 37° C., turbidity
Protocol: as §2

[2] = test system: methicillin resistant S. aureus; assay: Minimum inhibitory concentration in tryptic soy broth, methicillin resistant S. aureus; format: cell-based, Staphylococcus aureus; details: 24 hours 37° C., turbidity
Protocol: as §2

Row | SMILES | zone of inhibition at 0.125 µg/mL (Escherichia coli; 125 ng/ml in water) | zone of inhibition at 0.125 µg/mL (Staphylococcus aureus; 125 ng/ml in water) | zone of inhibition at 0.125 µg/mL (Bacillus subtilis; 125 ng/ml in water) | Zone of inhibition Escherichia coli (Escherichia coli; 10 mg/ml in DMSO) | Active against (Escherichia coli) | effectiveness against E. Coli (Escherichia coli) | Zone of inhibition Staphylococcus aureus (Staphylococcus aureus; 10 mg/ml in DMSO) | Zone of inhibition Bacillus subtilis (Bacillus subtilis; 10 mg/ml in DMSO) | active against at least one strain of bacteria in the assays above (bacteria) | also measured
1 | CC1(C)CCC23CC[C@@]4(C)C(CCC5[C@@]6(C)C=C(O)C(=O)C(C)(C)C6CC[C@]54C)C2C1OC3=O (stereo partly drawn) [Allobetulon-lactone-1-ene-2-ol, allobetulon lactone-1-ene-2-ol] | 0 mm | 0 mm | 0 mm |  |  |  |  |  |  | melting point: 238.8 to 243.6 °C
2 | C=C(C)[C@@H]1CC[C@]2(COC(=O)COCC(=O)O)CC[C@]3(C)[C@H](CC[C@@H]4[C@@]5(C)CC[C@H](OC(=O)COCC(=O)O)C(C)(C)[C@@H]5CC[C@]43C)[C@@H]12 [Betulin 3,28-didiglycolate, Betulin-3,28-didiglycolate] |  |  |  | 0 mm | E. coli | effective | 0 mm | 0 mm | active against at least one strain of bacteria | MIC (E. Coli): 0.282 µM (≈ 0.19 µg/mL)
3 | C=C(C)[C@@H]1CC[C@]2(COC(=O)CCCC(=O)O)CC[C@]3(C)[C@H](CC[C@@H]4[C@@]5(C)CC[C@H](OC(=O)CCCC(=O)O)C(C)(C)[C@@H]5CC[C@]43C)[C@@H]12 [Betulin 3,28-diglutarate, Betulin-3,28-diglutarate] |  |  |  | 0 mm | E. coli | effective | 0 mm | 0 mm | active against at least one strain of bacteria | Zone of inhibition Escherichia coli (Escherichia coli; 125 ng/ml in water): 12.0 mm; Zone of inhibition Staphylococcus aureus (Staphylococcus aureus; 125 ng/ml in water): 0 mm; Zone of inhibition Bacillus subtilis (Bacillus subtilis; 125 ng/ml in water): 0 mm; MIC (E. Coli): 0.282 µM (≈ 0.189 µg/mL)
4 | C=C(C)[C@@H]1CC[C@]2(COC(=O)/C=C\C(=O)O)CC[C@]3(C)[C@H](CC[C@@H]4[C@@]5(C)CC[C@H](OC(=O)/C=C\C(=O)O)C(C)(C)[C@@H]5CC[C@]43C)[C@@H]12 [Betulin 3,28-dimaleate, Betulin-3,28-dimaleate] |  |  |  | 0 mm |  |  | 11.0 mm | 0 mm |  | Active against (Staphylococcus aureus): S. aureus,; effectiveness against S. aureus (Staphylococcus aureus): effective; amount applied to the disk that inhibited S. aureus (Staphylococcus aureus; disk diffusion assay, laboratory strain (not methicillin resistant)): 56 ng; effectiveness against S. aureus compared with streptomycin (Staphylococcus aureus; laboratory strain (not methicillin resistant)): more effective; effectiveness against methicillin resistant S. aureus [1]: effective; Active against ([1]; Table 1 summary, S. aureus methicillin resistant): S. aureus methicillin; minimum inhibitory concentration (S. aureus): 2.3 µM (≈ 1.47 µg/mL); MIC [2]: 0.282 µM (≈ 0.18 µg/mL)
5 | C=C(C)C1CCC2(COP(=O)(O)O)CC[C@@]3(C)C(CCC4[C@@]5(C)CCC(OP(=O)(O)O)C(C)(C)C5CC[C@]43C)C12 (stereo partly drawn) [Betulin 3,28-diphosphate, Betulin-3,28-diphosphate] | 11 mm | 0 mm | 0 mm |  | E. coli | effective |  |  | active against at least one strain of bacteria | MIC (E. Coli; Escherichia coli): 0.282 µM (≈ 0.17 µg/mL)
6 | C=C(C)[C@@H]1CC[C@]2(COC(=O)c3ccccc3C(=O)O)CC[C@]3(C)[C@H](CC[C@@H]4[C@@]5(C)CC[C@H](OC(=O)c6ccccc6C(=O)O)C(C)(C)[C@@H]5CC[C@]43C)[C@@H]12 [Betulin 3,28-diphthalate, Betulin-3,28-diphthalate] |  |  |  | 0 mm |  |  | 10.0 mm | 0 mm | active against at least one strain of bacteria | sensitivity of S. aureus (Staphylococcus aureus; Example 34, 10 mg/ml in DMSO): sensitive; Active against (Staphylococcus aureus): S. aureus; effectiveness against S. aureus (Staphylococcus aureus): effective; minimum inhibitory concentration (S. aureus): 2.3 µM (≈ 1.7 µg/mL)
7 | C=C(C)[C@@H]1CCC2(CO)CC[C@@]3(C)C(CCC4[C@@]5(C)C=C(O)C(=O)C(C)(C)C5CC[C@]43C)C12 (stereo partly drawn) [Betulon-1,2-ene-ol, betulon-1-ene-2-ol] | 0 mm | 0 mm | 0 mm |  |  |  |  |  |  | melting point: 167 to 170 °C (dec.)
